For one experiment, the target named is T1, progesterone receptor (Homo sapiens, UniProt P06401).
T1 construct: made in house; host or cells: Hi5 insect cells (cytosol)
T1 sequence (P06401 1-933): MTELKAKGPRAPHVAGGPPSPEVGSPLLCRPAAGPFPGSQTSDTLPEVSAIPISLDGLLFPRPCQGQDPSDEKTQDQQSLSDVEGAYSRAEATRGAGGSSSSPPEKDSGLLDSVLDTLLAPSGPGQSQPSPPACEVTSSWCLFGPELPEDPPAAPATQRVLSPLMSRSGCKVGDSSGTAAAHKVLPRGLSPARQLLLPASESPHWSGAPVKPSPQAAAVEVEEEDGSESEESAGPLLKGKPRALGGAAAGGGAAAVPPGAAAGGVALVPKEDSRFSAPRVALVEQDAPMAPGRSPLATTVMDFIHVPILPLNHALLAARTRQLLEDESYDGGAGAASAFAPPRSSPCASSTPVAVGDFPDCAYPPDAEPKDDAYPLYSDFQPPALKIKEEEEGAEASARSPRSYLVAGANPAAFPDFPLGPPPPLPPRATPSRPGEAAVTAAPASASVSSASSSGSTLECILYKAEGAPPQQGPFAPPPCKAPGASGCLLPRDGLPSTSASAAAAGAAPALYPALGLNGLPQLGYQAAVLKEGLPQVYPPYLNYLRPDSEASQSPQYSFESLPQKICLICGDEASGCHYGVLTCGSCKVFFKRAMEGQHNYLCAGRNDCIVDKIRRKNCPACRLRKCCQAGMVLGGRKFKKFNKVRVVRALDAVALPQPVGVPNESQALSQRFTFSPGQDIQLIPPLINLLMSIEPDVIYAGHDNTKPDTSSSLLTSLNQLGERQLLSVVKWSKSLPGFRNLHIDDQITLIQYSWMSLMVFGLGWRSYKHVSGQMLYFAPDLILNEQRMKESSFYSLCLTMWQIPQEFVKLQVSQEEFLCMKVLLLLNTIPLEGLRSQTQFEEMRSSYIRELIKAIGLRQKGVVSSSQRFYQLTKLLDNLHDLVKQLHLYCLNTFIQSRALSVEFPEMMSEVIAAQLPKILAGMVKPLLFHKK
Description: Progesterone receptor binding test. As to conditions: for Progesterone receptor (PR) Competition factor: CF 1 = affinity of progesterone, CF >1 lower affinity, <1 higher affinity; for CF PR/CF MR: ratio of competition factors CF(PR) and CF(MR). On the procedure: 1. Progesterone Receptor Binding Test:
(§1) Using cytosol from progesterone receptor-expressing insect cells (Hi5), competitive binding to the progesterone receptor was determined from the ability to displace ^3H-progesterone as reference substance from the receptor.

The target in another experiment is T2, androgen receptor (Homo sapiens, UniProt P10275).
T2 sequence (P10275 1-920): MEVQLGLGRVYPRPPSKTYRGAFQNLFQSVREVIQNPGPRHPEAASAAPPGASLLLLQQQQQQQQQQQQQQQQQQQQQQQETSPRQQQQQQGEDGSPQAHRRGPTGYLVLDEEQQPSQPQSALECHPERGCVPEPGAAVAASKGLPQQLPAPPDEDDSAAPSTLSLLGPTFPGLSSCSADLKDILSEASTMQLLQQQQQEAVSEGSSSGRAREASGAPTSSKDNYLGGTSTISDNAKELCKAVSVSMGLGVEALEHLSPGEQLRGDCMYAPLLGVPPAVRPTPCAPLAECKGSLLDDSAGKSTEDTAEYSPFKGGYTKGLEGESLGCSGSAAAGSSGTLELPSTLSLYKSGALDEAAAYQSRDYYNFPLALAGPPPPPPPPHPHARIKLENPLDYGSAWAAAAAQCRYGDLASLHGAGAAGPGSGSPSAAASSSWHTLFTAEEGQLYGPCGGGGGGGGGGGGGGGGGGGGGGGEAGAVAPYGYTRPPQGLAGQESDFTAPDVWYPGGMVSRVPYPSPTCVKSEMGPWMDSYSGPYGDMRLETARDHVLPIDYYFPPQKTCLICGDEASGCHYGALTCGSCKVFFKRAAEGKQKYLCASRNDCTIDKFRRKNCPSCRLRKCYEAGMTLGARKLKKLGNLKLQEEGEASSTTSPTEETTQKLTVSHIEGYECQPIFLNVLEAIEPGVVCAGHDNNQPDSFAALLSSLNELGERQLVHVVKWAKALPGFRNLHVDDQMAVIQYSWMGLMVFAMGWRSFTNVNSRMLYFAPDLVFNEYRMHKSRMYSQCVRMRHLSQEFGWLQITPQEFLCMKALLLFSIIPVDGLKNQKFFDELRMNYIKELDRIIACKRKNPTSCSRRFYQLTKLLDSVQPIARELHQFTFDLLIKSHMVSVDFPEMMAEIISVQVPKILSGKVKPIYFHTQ
The experiment can be described thus: Androgen receptor binding test. On the set-up: expressed in transfected cells. As to the method: as §1
3. Androgen Receptor Binding Test: […]

Experiment [1] concerns the target T3, fusion protein from the PR-ligand-binding domain and a Gal4-transactivation domain (Homo sapiens, UniProt P06401).
T3 construct: expressed in transfected cells; host or cells: CHO K1 cells, stably transfected
Description: Progestational action by transactivation test (CHO K1 reporter cells). As to conditions: for Emax: CHO-K1, 16 h, read-out: Progesterone receptor Agonism efficacy. In kind it is cell-based. The method in brief: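 Progestational activity was measured in CHO K1 reporter cells stably expressing a fusion of the progesterone receptor ligand-binding domain with a Gal4-transactivation domain, plus a luciferase reporter under a Gal4-responsive promoter. Cells were plated at 4×10^4 per well in white 96-well plates with 3% DCC-FCS medium. Compounds were added eight hours later for 16 hours in triplicate. Luminescence was read after lysis and addition of luciferase substrate.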

Read-outs that look alike come from different tables or passages of the source.

T3 sequence (P04386 1-147 partner limits assumed, one chain of several): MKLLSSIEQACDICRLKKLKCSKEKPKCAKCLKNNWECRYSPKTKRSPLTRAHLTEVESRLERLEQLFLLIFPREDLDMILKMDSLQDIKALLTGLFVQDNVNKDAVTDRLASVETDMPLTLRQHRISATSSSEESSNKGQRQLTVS

Turning to `CC[C@]12CC[C@H]3[C@@H]([C@H]4C[C@H]4C4=CC(=O)CC[C@@H]43)[C@@H]1[C@@H]1C[C@@H]1[C@@]21C=CC(=O)O1` [Example 1, 6β,7β;15β,16β-Bismethylene-17β-hydroxy-18-methyl-19-nor-17α-pregna-4,20(Z)-dien-3-one-21-carboxylic acid γ-lactone], on progesterone receptor, the IC50 was 41 nM, the “Progesterone receptor (PR) Competition factor” value came to 0.76 and the “CF PR/CF MR” value is reported as 0.48. The same compound registered an IC50 on androgen receptor of 280 nM. In addition, in experiment [1], the midpoint of the response, the EC50, lay at 1.5 nM and the Emax was 62.8%.
`CC[C@@H]1CC2=CC(=O)CC[C@@H]2[C@H]2CC[C@@]3(CC)[C@@H]([C@@H]4C[C@@H]4[C@@]34C=CC(=O)O4)[C@H]12` [Example 5A, 17β-Hydroxy-7α-ethyl-18-methyl-15β,16β-methylene-19-nor-17α-pregna-4,20(Z)-dien-3-one-21-carboxylic acid γ-lactone]: at progesterone receptor, the IC50 was 300 nM, the “Progesterone receptor (PR) Competition factor” value is listed as 12.00 and the “CF PR/CF MR” value is reported as 12.00. The compound also had an IC50 at androgen receptor of 110 nM. Also, in experiment [1], the EC50 is 99 nM and the Emax turned out to be 35.7%.
Turning to `CC[C@]12CC[C@H]3[C@@H](C[C@@H](CO)C4=CC(=O)CC[C@@H]43)[C@@H]1[C@@H]1C[C@@H]1[C@@]21C=CC(=O)O1` [Example 10, 17β-Hydroxy-6β-hydroxymethylene-18-methyl-15β,16β-methylene-19-nor-17α-pregna-4,20(Z)-dien-3-one-21-carboxylic acid γ-lactone], on progesterone receptor, the “Progesterone receptor (PR) Competition factor” value is 4000.00 and the “CF PR/CF MR” value is “inactive”. Further, at androgen receptor (reference substance 3H-testosterone, cytosol from AR-expressing insect cells (Hi5), read-out: Androgen receptor IC50), the IC50 stood at 1000 nM. The “Progesterone receptor Agonism EC50” value in experiment [1] (CHO K1 reporter cells, 16 hours incubation) is “inactive”.
With `C=C[C@@H]1CC2=CC(=O)CC[C@@H]2[C@H]2CC[C@@]3(C)[C@@H]([C@@H]4C[C@@H]4[C@@]34C=CC(=O)O4)[C@@H]21` [Example 25A, 17β-Hydroxy-15β,16β-methylene-7α-vinyl-19-nor-17α-pregna-4,20(Z)-dien-3-one-21-carboxylic acid γ-lactone], on progesterone receptor, the IC50 stood at 150 nM, the “Progesterone receptor (PR) Competition factor” value was found to be 6.14 and the “CF PR/CF MR” value was 0.65. In addition, the IC50 at androgen receptor was 37 nM. Moreover, in experiment [1], it took 560 nM to reach a half-maximal effect (EC50) and the Emax is 46.5%.
As to `C[C@]12CC[C@H]3[C@@H](CCC4=CC(=O)CC[C@@H]43)[C@@H]1[C@H]1C[C@H]1[C@@]21C=CC(=O)O1` [Example 12, 17β-Hydroxy-15α,16α-methylene-19-nor-17α-pregna-4,20(Z)-dien-3-one-21-carboxylic acid γ-lactone], at progesterone receptor, the IC50 worked out at 49 nM, the “Progesterone receptor (PR) Competition factor” value turned out to be 1.50 and the “CF PR/CF MR” value was found to be 0.52. On androgen receptor, this compound gave an IC50 of 200 nM. Further, in experiment [1], the EC50 stood at 0.4 nM and the Emax is 75.5%.
Regarding `C[C@]12CC[C@H]3[C@H]([C@@H]1[C@H]1C[C@H]1[C@@]21C=CC(=O)O1)[C@H](C1CC1)CC1=CC(=O)CC[C@@H]13` [Example 17A, 17β-Hydroxy-7α-cyclopropyl-15α,16α-methylene-19-nor-17α-pregna-4,20(Z)-dien-3-one-21-carboxylic acid γ-lactone], at progesterone receptor, the IC50 is 280 nM, the “Progesterone receptor (PR) Competition factor” value turned out to be 12.24 and the “CF PR/CF MR” value was 4.71. Moreover, the IC50 at androgen receptor was 77 nM. In addition, in experiment [1], the EC50 amounted to 970 nM and the Emax was 71.8%.
Take `C[C@@H]1CC2=CC(=O)CC[C@@H]2[C@H]2CC[C@@]3(C)[C@@H]([C@H]4C[C@H]4[C@@]34C=CC(=O)O4)[C@@H]21` [Example 14A, 17β-Hydroxy-7α-methyl-15α,16α-methylene-19-nor-17α-pregna-4,20(Z)-dien-3-one-21-carboxylic acid γ-lactone]: at progesterone receptor, the IC50 came out at 49 nM, the “Progesterone receptor (PR) Competition factor” value amounted to 2.04 and the “CF PR/CF MR” value worked out at 1.57. The compound further displayed an IC50 at androgen receptor of 74 nM. In experiment [1], the EC50 worked out at 16 nM and the Emax amounted to 86.3%.
As to `C[C@@H]1CC2=CC(=O)CC[C@@H]2[C@H]2CC[C@@]3(C)[C@@H]([C@@H]4C[C@@H]4[C@@]34C=CC(=O)O4)[C@@H]21` [Example 23A, 17β-Hydroxy-7α-methyl-15β,16β-methylene-19-nor-17α-pregna-4,20(2)-dien-3-one-21-carboxylic acid γ-lactone], at progesterone receptor, the IC50 was 120 nM, the “Progesterone receptor (PR) Competition factor” value amounted to 3.79 and the “CF PR/CF MR” value is listed as 1.99. Besides, the IC50 on androgen receptor is 81 nM. Moreover, in experiment [1], a half-maximal response (EC50) required 21 nM and the Emax came to 140%.
